Results taken from patent US20240365774A1, “METHODS FOR CRYOPROTECTION AND LYOPROTECTION OF CELLS” (LONZA LTD, priority 2021, published 2024).
“Also recorded” adds a separate entry of the source.

Tested on: human mesenchymal stem cells (hMSCs)
Experiment: Freeze-thaw of hMSCs in CPA formulations at −80° C., viability by alamarBlue assay
Type: cell-based
Experimental: Adherent bone marrow derived human mesenchymal stem cells (hMSCs) (ATCC) were expanded to create a cell bank and stored in the vapor phase of liquid nitrogen in growth medium supplemented with 50% FBS and 7.5% DMSO at passage 3. Aliquots of those samples were warmed in a 37° C. water bath and cultured in MSCGM™ Mesenchymal Stem Cell Growth Medium BulletKit™ (containing FBS, Lonza); a commercially available medium that facilitates undifferentiated proliferation of hMSCs. The cells were kept in a humidified incubator at 37° C. and 5% CO2, whilst the growth medium was changed every 3-4 days. When hMSCs reached confluence of ˜90%, they were split and re-seeded at ˜5000 cells/cm^2 to facilitate further expansion. For experiments, cells between passages 4-8 were used. […]
For frozen samples, that is for samples after freezing and thawing, viability was measured by performing an alamarBlue™ assay (Invitrogen) according to the manufacturer's instructions. […] This reaction only takes place in cells that are metabolically active (viable), thus correlating measured fluorescence with viable cells. […] Assay reagent was then applied and, after a 4 h incubation, fluorescence was measured using a SpectraMax® iD3 with wavelengths of λex=550 nm and λem=590 nm. Background fluorescence values were subtracted from the measurements and compared to fluorescence values of untreated cells.

| Structure (SMILES) | viable cells after freeze-thaw (cryoprotection) (urea alone, 0.05, 0.1, 0.2 and 0.5 M, FIG. 1A) | viable cells after freeze-thaw (5% DMSO control) |
| --- | --- | --- |
| NC(N)=O [urea] | virtually no viable cells; also recorded: does not facilitate cryoprotection |  |
| C[S+](C)[O-] [DMSO, dimethyl sulfoxide, reference compound] |  | 58% |
